Measurements published in the OligoGym collection.
After the bases stand the sugars from the 5' end (letter, count) and the backbone: PS all phosphorothioate, else s phosphorothioate and o phosphodiester by linkage. Methylation of C is not given here. e = 2'-O-(2-methoxyethyl) (MOE); k = constrained ethyl (cEt); d = 2'-deoxy (DNA); m = 2'-O-methyl

Molecular target: HSD17B13
Settings: ASO, HepaRG

Sequence	target mRNA inhibition (1 µM)	other results
TTATAACTACAAGAGG (sugars kkdddddddddkekek, PS)	55%	
TTATAACTGAGCTAGA (sugars k3 d10 k3, PS)	8%	
TTATACTTTTCCGTCT (sugars k3 d10 k3, PS)	61%	
TTATATGAGGTCTGTA (sugars k3 d10 k3, PS)	32%	
TTATGAAGTTAGTATA (sugars k3 d10 k3, PS)	31%	
TTATGTACCAAACTTG (sugars k3 d10 k3, PS)	53%	
TTATGTGATTGAGTTC (sugars kkdddddddddkekek, PS)	21%	
TTATTGGTAAGTATTC (sugars k3 d10 k3, PS)	17%	
TTCACCACGATTGTTA (sugars k3 d10 k3, PS)	40%	
TTCATAGGGAGACCAT (sugars k3 d10 k3, PS)	65%	
TTCATTCGAATTTCTT (sugars k3 d10 k3, PS)	71%	target mRNA inhibition (0.02 µM): 12%; target mRNA inhibition (0.078 µM): 10%; target mRNA inhibition (0.313 µM): 43%; target mRNA inhibition (1.25 µM): 78%; target mRNA inhibition (5 µM): 89%
TTCCAAATCAGGTAGT (sugars k3 d10 k3, PS)	12%	
TTCCATCTATCAGACT (sugars k3 d10 k3, PS)	33%	
TTCCATCTATCAGACT (sugars kkdddddddddkekek, PS)	33%	
TTCCCAACGCAACAGT (sugars k3 d10 k3, PS)	60%	
TTCCTCCACACCGCGC (sugars k3 d10 k3, PS)	47%	
TTCGAAACTATTCATA (sugars k3 d10 k3, PS)	44%	
TTCGGCACTCAGCTGC (sugars k3 d10 k3, PS)	41%	
TTCTACAGAAGACTAC (sugars k3 d10 k3, PS)	40%	

Sequence	target mRNA inhibition (1 µM)	other results
TTCTATGCAAGCCTTC (sugars k3 d10 k3, PS)	51%	
TTCTCAAGGAGTACTT (sugars k3 d10 k3, PS)	76%	
TTCTCTCCATCATCGA (sugars k3 d10 k3, PS)	35%	
TTCTGTAGGACTCTGC (sugars k3 d10 k3, PS)	72%	
TTCTGTGGCATGGCTA (sugars k3 d10 k3, PS)	78%	target mRNA inhibition (0.02 µM): 0%; target mRNA inhibition (0.078 µM): 0%; target mRNA inhibition (0.313 µM): 34%; target mRNA inhibition (1.25 µM): 67%; target mRNA inhibition (5 µM): 91%
TTCTTATGTAATAGCC (sugars k3 d9 k3 e1, PS)	73%	target mRNA inhibition (0.02 µM): 17%; target mRNA inhibition (0.078 µM): 25%; target mRNA inhibition (0.313 µM): 57%; target mRNA inhibition (1.25 µM): 76%; target mRNA inhibition (5 µM): 85%
TTGAATAGCAAGCCAA (sugars k3 d1 m1 d8 k3, PS)	30%	
TTGAATTCACTATCTC (sugars k3 d10 k3, PS)	45%	
TTGATATTCTGTGGCA (sugars k3 d10 k3, PS)	87%	target mRNA inhibition (0.02 µM): 0%; target mRNA inhibition (0.078 µM): 17%; target mRNA inhibition (0.313 µM): 58%; target mRNA inhibition (1.25 µM): 80%; target mRNA inhibition (5 µM): 94%
TTGATCTCTTAGCTGT (sugars k3 d9 k3 e1, PS)	64%	
TTGATCTCTTAGCTGT (sugars kkdddddddddkekek, PS)	38%	
TTGATTCGAAACTATT (sugars k3 d10 k3, PS)	55%	
TTGAUATTCTGTGGCA (sugars k3 d1 m1 d8 k3, PS)	60%	
TTGCAAGTTTATCAGT (sugars k3 d10 k3, PS)	66%	
TTGCAATAGTACTATA (sugars k3 d10 k3, PS)	3%	
TTGCACCGTTTTGGGC (sugars k3 d9 k3 e1, PS)	50%	
TTGCAGAAATTCACCT (sugars k3 d10 k3, PS)	36%	
TTGCAGCATTGATTCG (sugars k3 d10 k3, PS)	59%	
